This is an account of results in ChEMBL document CHEMBL4270672, “Synthesis and Biological Evaluation of Fused Tricyclic Heterocycle Piperazine (Piperidine) Derivatives As Potential Multireceptor Atypical Antipsychotics” (J Med Chem, 2018).

The target in assay [1] is 5-hydroxytryptamine receptor 2A (Rattus norvegicus, UniProt P14842). The assay can be described thus: Displacement of [3H]-ketanserine from serotonin 5-HT2A receptor in rat brain cortex homogenates incubated for 30 mins by liquid scintillation counting.
Sequence of 5-hydroxytryptamine receptor 2A (P14842 whole entry): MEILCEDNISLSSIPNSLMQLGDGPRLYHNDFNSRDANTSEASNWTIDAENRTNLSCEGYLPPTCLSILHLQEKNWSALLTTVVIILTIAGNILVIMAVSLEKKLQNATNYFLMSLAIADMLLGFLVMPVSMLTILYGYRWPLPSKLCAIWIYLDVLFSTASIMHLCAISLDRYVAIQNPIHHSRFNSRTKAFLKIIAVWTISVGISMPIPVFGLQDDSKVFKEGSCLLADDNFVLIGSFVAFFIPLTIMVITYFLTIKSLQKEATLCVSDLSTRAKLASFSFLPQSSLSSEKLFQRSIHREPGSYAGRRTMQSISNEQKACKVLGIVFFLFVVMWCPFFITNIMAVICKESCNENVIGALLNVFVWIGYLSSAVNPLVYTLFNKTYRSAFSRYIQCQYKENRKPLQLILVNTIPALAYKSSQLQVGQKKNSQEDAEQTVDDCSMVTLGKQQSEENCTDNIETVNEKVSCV
Assay [2] deals with T1, 5-hydroxytryptamine receptor 1A (Rattus norvegicus, UniProt P19327).
T1 sequence (P19327 whole entry): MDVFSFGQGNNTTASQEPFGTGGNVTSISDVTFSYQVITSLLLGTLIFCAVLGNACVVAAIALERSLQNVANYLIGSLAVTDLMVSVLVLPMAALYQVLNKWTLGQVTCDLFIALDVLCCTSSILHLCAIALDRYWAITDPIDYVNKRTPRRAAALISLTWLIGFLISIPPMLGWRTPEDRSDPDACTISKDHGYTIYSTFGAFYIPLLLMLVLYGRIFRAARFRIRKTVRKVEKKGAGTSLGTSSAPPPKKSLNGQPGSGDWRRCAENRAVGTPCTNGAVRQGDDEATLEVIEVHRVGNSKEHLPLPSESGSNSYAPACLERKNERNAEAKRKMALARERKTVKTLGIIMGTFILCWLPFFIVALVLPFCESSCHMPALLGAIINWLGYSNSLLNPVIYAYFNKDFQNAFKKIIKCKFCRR

For assay [3], the target named is D(2) dopamine receptor (Rattus norvegicus, UniProt P61169).
Sequence of D(2) dopamine receptor (P61169 whole entry): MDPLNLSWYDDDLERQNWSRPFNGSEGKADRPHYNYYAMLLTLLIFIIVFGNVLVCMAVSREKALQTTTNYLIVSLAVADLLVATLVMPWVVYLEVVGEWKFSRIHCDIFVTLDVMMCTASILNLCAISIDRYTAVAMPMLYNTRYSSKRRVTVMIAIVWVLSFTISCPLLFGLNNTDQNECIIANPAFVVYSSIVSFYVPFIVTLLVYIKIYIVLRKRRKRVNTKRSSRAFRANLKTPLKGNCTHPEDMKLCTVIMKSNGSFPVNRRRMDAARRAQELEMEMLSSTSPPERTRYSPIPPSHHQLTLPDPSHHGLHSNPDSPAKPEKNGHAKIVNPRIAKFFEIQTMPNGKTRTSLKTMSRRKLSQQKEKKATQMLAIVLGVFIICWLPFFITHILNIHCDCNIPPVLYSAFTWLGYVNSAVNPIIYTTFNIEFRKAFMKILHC

pKi: −log10 of the molar value.

In general, pKi refers to the negative decadic logarithm of the Ki, by convention in mol/L. Consider `O=C(CCN1CCC(c2noc3cc(F)ccc23)CC1)c1cc2c3c(c1)CCN3C(=O)CC2`, for which the pKi is 7.76 in assay [1], 7.79 in assay [2] and 7.71 in assay [3].

Consider `O=C1CCc2cc(CCCN3CCC(c4noc5cc(F)ccc45)CC3)cc3c2N1CCC3`, for which the pKi was 7.13 in assay [1], 7.23 in assay [2] and 7.35 in assay [3].

As to `Cc1cccc(N2CCN(CCC(=O)c3cc4c5c(c3)CCC(=O)N5CCC4)CC2)c1C`, the values for the pKi in assay [1], in assay [2] and in assay [3] were 6.68, 6.71 and 5.73, respectively.

Turning to `O=C(CCCN1CCC(c2noc3cc(F)ccc23)CC1)c1cc2c3c(c1F)CCC(=O)N3CC2`, the figures for the pKi in assay [1], in assay [2] and in assay [3] were 7.75, 7.60 and 7.72, respectively.

As to `CC1CC(=O)N2CCCc3cc(C(=O)CCCN4CCC(c5noc6cc(F)ccc56)CC4)cc1c32` (centres undefined), the negative logarithm of the Ki (pKi) was 7.49 in assay [1], 7.37 in assay [2] and 7.21 in assay [3].

Take `CC1CC(=O)N2CCCc3cc(CCCCN4CCC(c5noc6cc(F)ccc56)CC4)cc1c32` (centres undefined): the figures for the pKi in assay [1], in assay [2] and in assay [3] were 7.08, 7.08 and 7.07, respectively.

As for `O=C(CCCN1CCC(c2noc3cc(F)ccc23)CC1)c1cc2c3c(c1F)CCN3C(=O)CC2`, the negative-log Ki (pKi) in assay [1] is 7.66; in assay [2], 7.72; in assay [3] it was 7.74.

Regarding `O=C1CCc2cc(CCCN3CCN(c4cccc(Cl)c4Cl)CC3)cc3c2N1CCC3`, the pKi was 6.73 in assay [1], 6.71 in assay [2] and 6.24 in assay [3].

With `O=C(CCN1CCN(c2nsc3ccccc23)CC1)c1cc2c3c(c1)CCC(=O)N3CCC2`, the pKi in assay [1] is 7.14; in assay [2], 6.89; in assay [3] it was 6.74.

Consider `O=C1CCc2cc(C(O)CCN3CCC(c4noc5cc(F)ccc45)CC3)cc3c2N1CCC3` (centres undefined), for which the pKi in assay [1] is 7.70; in assay [2], 7.71; in assay [3], 7.55.

Turning to `O=C(CCCN1CCN(c2nsc3ccccc23)CC1)c1cc2c3c(c1)CCC(=O)N3CCC2`, the values for the pKi in assay [1], in assay [2] and in assay [3] were 7.06, 6.82 and 7.04, respectively.

`O=C1CCc2cc(CCCCN3CCN(c4cccc(Cl)c4Cl)CC3)cc3c2N1CCC3`: the negative-log Ki (pKi) was 7.01 in assay [1], 6.71 in assay [2] and 6.40 in assay [3].

As to `O=C(CCCCN1CCC(c2noc3cc(F)ccc23)CC1)c1cc2c3c(c1)CCC(=O)N3CCC2`, the negative logarithm of the Ki (pKi) in assay [1] was 7.72; in assay [2] it was 7.49; in assay [3] it was 7.50.

For the compound `O=C1CCc2cc(CCCCCN3CCC(c4noc5cc(F)ccc45)CC3)cc3c2N1CC3`, the pKi in assay [1] is 7.23; in assay [2] it was 7.27; in assay [3] it was 7.36.

Turning to `O=C(CN1CCC(c2noc3cc(F)ccc23)CC1)c1cc2c3c(c1)CCC(=O)N3CCC2`, the pKi in assay [1] is 6.12; in assay [2], < 5.70; in assay [3] it was 6.05.

On to `O=C(CCN1CCN(c2nsc3ccccc23)CC1)c1cc2c3c(c1)CCN3C(=O)CC2`, for which the results for the negative logarithm of the Ki (pKi) in assay [1], in assay [2] and in assay [3] were 7.16, 7.26 and 7.05, respectively.

Consider `O=C(CCN1CCN(c2cccc(Cl)c2Cl)CC1)c1cc2c3c(c1)CCN3C(=O)CC2`, for which the pKi in assay [1] is 7.03; in assay [2], 7.09; in assay [3], 6.73.

For `O=C(CCN1CCC(c2nc3ccccc3s2)CC1)c1cc2c3c(c1)CCC(=O)N3CCC2`, the pKi in assay [1] was 6.76; in assay [2], 6.41; in assay [3] it was 6.06.

Consider `O=C(CCN1CCN(c2ccccc2)CC1)c1cc2c3c(c1)CCC(=O)N3CCC2`, for which the values for the pKi in assay [1], in assay [2] and in assay [3] were 6.12, 5.73 and 5.75, respectively.

For `Cc1cccc(N2CCN(CCC(=O)c3cc4c5c(c3)CCN5C(=O)CC4)CC2)c1C`, the results for the pKi in assay [1], in assay [2] and in assay [3] were 6.76, 7.07 and 6.72, respectively.

Consider `O=C(CCCN1CCN(c2cccc(Cl)c2Cl)CC1)c1cc2c3c(c1)CCC(=O)N3CCC2`, for which the pKi in assay [1] was 7.10; in assay [2], 6.83; in assay [3], 6.55.

Consider `Cc1cccc(N2CCN(CCCC(=O)c3cc4c5c(c3)CCC(=O)N5CCC4)CC2)c1C`, for which the negative logarithm of the Ki (pKi) in assay [1] is 7.23; in assay [2], 6.77; in assay [3] it was 6.73.

As to `O=C(CCCN1CCN(c2nsc3ccccc23)CC1)c1cc2c3c(c1)CCN3C(=O)CC2`, the pKi in assay [1] was 7.30; in assay [2], 7.50; in assay [3] it was 7.30.

`O=C1CCc2cc(CCCCN3CCN(c4nsc5ccccc45)CC3)cc3c2N1CCC3`: the results for the pKi in assay [1], in assay [2] and in assay [3] were 7.08, 7.01 and 6.81, respectively.

In the case of `O=C1CCc2cc(CCCCN3CCC(c4noc5cc(F)ccc45)CC3)cc3c2N1CCC3`, the figures for the pKi in assay [1], in assay [2] and in assay [3] were 7.23, 7.16 and 7.13, respectively.

For the compound `O=C(CCN1CCC(c2noc3cc(F)ccc23)CC1)c1cc2c3c(c1)CCC(=O)N3CCC2`, the negative-log Ki (pKi) was 7.28 in assay [1], 7.20 in assay [2] and 7.24 in assay [3].

Turning to `O=C(CCN1CCN(c2cccc(Cl)c2Cl)CC1)c1cc2c3c(c1)CCC(=O)N3CCC2`, the negative logarithm of the Ki (pKi) in assay [1] was 6.68; in assay [2], 6.57; in assay [3], 5.91.

With `O=C(CCN1CCN(c2ccccn2)CC1)c1cc2c3c(c1)CCC(=O)N3CCC2`, the pKi is 6.17 in assay [1], 5.78 in assay [2] and 5.78 in assay [3].

Turning to `O=C(CCCN1CCC(c2noc3cc(F)ccc23)CC1)c1cc2c3c(c1)CCC(=O)N3CCC2`, the pKi was 7.65 in assay [1], 7.48 in assay [2] and 7.74 in assay [3].

Consider `O=C1CCc2cc(C(O)CCN3CCC(c4noc5cc(F)ccc45)CC3)cc3c2N1CC3` (centres undefined), for which the pKi in assay [1] was 7.22; in assay [2] it was 7.53; in assay [3], 7.71.

For `O=C(CCCCCN1CCC(c2noc3cc(F)ccc23)CC1)c1cc2c3c(c1)CCN3C(=O)CC2`, the pKi in assay [1] is 7.46; in assay [2] it was 6.77; in assay [3] it was 7.05.

Turning to `COc1ccccc1N1CCN(CCC(=O)c2cc3c4c(c2)CCC(=O)N4CCC3)CC1`, the pKi in assay [1] is 6.75; in assay [2] it was 6.02; in assay [3], < 5.70.

Consider `O=C(CCN1CCN(c2ccc(Cl)cc2)CC1)c1cc2c3c(c1)CCC(=O)N3CCC2`, for which the pKi in assay [1] was 6.14; in assay [2], 5.79; in assay [3] it was < 5.70.

Regarding `N#Cc1ccc(N2CCN(CCC(=O)c3cc4c5c(c3)CCN5C(=O)CC4)CC2)c(F)c1`, the figures for the pKi in assay [1], in assay [2] and in assay [3] were 6.41, 6.32 and 6.24, respectively.

For the compound `O=C(CCCN1CCN(c2cccc(Cl)c2Cl)CC1)c1cc2c3c(c1)CCN3C(=O)CC2`, the figures for the pKi in assay [1], in assay [2] and in assay [3] were 7.42, 7.27 and 6.98, respectively.

Consider `O=C1CCc2cc(CCCN3CCC(c4noc5cc(F)ccc45)CC3)cc3c2N1CC3`, for which the pKi in assay [1] is 7.53; in assay [2], 7.41; in assay [3], 7.33.

With `O=C1CCc2cc(C(O)CCCN3CCC(c4noc5cc(F)ccc45)CC3)cc3c2N1CCC3` (centres undefined), the values for the pKi in assay [1], in assay [2] and in assay [3] were 7.62, 7.10 and 7.53, respectively.

Consider `O=C(CCN1CCN(c2ncccn2)CC1)c1cc2c3c(c1)CCC(=O)N3CCC2`, for which the pKi in assay [1] is 6.25; in assay [2] it was 5.71; in assay [3], < 5.70.
